The test has as its system Resectable Pancreatic Adenocarcinoma. Kind of test: Disease free survival after adjuvant gemcitabine. In kind it is in vivo, human. Here is the method:
Statistical analysis was performed using software SPSS version 16 (SPSS Inc., Chicago, Ill.). P-values <0.05 were regarded as significant. Disease free survival (DFS) was analyzed using the Kaplan-Meier method and compared with the log-rank test.
The connectivity concept of the present invention can be used with actual patient profiles. Patients were recruited under the Phase II Study of an Individualized Drug Treatment Selection Process Based on a Tumor Xenograft Model for Patients with Resectable Pancreatic Adenocarcinoma (JHOC-J0507 JHOC-05041402, NCT00276744). All patients signed the informed consent of this trial. Twenty-four of the patients with complete follow-up data were included in this study. Direct-patient xenograft cases from the PancXenoBank, Rubio-Viqueira B, Jimeno A, Cusatis G, et al: An In vivo Platform for Translational Drug Development in Pancreatic Cancer. Clin Cancer Res 12:4652-4661, 2006, were also used.
The mean age of diagnosis for these patients is 65 years (range from 41 to 81 years). All patients received gemcitabine as adjuvant chemotherapy. Herrmann R, Bodoky G, Ruhstaller T, et al: Gemcitabine Plus Capecitabine Compared With Gemcitabine Alone in Advanced Pancreatic Cancer: A Randomized, Multicenter, Phase III Trial of the Swiss Group for Clinical Cancer Research and the Central European Cooperative Oncology Group. […] Cancer 85:1261-1268, 1999. […] See Oettle H, Post S, Neuhaus P, et al: Adjuvant Chemotherapy with Gemcitabine vs. Observation in Patients Undergoing Curative-Intent Resection of Pancreatic Cancer: A Randomized Controlled Trial. JAMA 297:267-277, 2007. The median DFS for these patients was 291 days.
Using the methods of the present invention, where a patient is connected to a sensitive cell line, the patient will be predicted as sensitive to gemcitabine and vice versa. This approach achieved an overall prediction accuracy of 71% on these retrospective patient samples. […] The positive predicted value and negative predicted value are 73% and 69%, respectively. […]

In the case of `Nc1ccn([C@@H]2O[C@H](CO)[C@@H](O)C2(F)F)c(=O)n1` [gemcitabine], the “median DFS” value (all 24 patients, gemcitabine as adjuvant chemotherapy) was determined as 291 days; the “median DFS” value (predicted gemcitabine resistant group) is listed as 162 days; the “median DFS” value (predicted gemcitabine sensitive group) is on record as 491 days.
